Assay results reported in patent US20080108548A1, “Food Composition For Rapidly Attenuating Inflammatory Responses” (priority 2004, published 2008).

System: rats subjected to hemorrhagic shock
Procedure: Using the non-lethal hemorrhagic shock model as described earlier (Luyer et al., Ann. Surg. 239:257-264, 2004; Luyer et al. Shock 21:65-71, 2004) rats were anesthetised, the femoral artery was dissected and cannulated. Mean arterial pressure (MAP) and heart rate were continuously recorded for 50 min. At the time of shock (t=0), 2.1 ml blood per 100 g body weight was taken at a rate of 1 ml/min (34-40% of total blood volume). At 45 min before induction of hemorrhagic shock, rats were subjected to vagotomy or sham vagotomy. In vagotomised animals a ventral cervical incision was made and both vagal trunks exposed. The vagus nerve was ligated at both ends using 4-0 silk suture and divided. In sham-operated animals, both vagal trunks were exposed, but the vagus nerve was not ligated and divided.
Before the experiments, 18 rats were fasted, 18 were fed with low-fat feed (6.9 en % protein, 75.4 en % carbohydrate, 16.7 en % fat) and 18 were fat with a high-fat feed according to the invention (6.9 en % protein, 40.9 en % carbohydrate, 52.2 en % fat). The low-fat and high-fat feeds were isocaloric. 3 ml was given at 18 h before hemorrhagic shock, and 0.75 ml at 2 h and 45 min before hemorrhagic by oral gavage. Fasted and high-fat fed rats underwent vagotomy or sham vagotomy. To investigate the role of CCK, six high-fat fed animas were injected i.v. with CCK-A (500 μg/kg) and CCK-B (500 μg/kg) receptor antagonists and six with control vehicle 25 min before induction of shock. […] At 90 min after hemorrhagic shock, blood was taken and segments of small bowel were harvested for determination of gut permeability. Plasma was separated by centrifugation, frozen immediately and stored until analysis.

[1] = high-fat fed rats given the blocker i.v. 25 min before shock, compared to high-fat controls
[2] = high-fat rats treated with chlorisondamine versus chlorisondamine-treated fasted rats

Structure (SMILES): C[N+](C)(C)CC[N+]1(C)Cc2c(Cl)c(Cl)c(Cl)c(Cl)c2C1 [chlorisondamine]
- bacterial translocation to distant organs [1]: increased
- plasma endotoxin [1]: elevated
- inhibitory effect of high-fat enteral nutrition on circulating TNF-α (high-fat fed sham-vagotomised rats, i.v. 25 min before shock): abrogated
- IL-6 levels [2]: comparable
- TNF-α levels [2]: comparable
- MAP (rat, in vivo): significantly lower
- additional hypotension or changes in heart rate (rat, in vivo): did not cause
- decrease in MAP associated with administration (rat, in vivo, iv): 100 to 65 mm Hg
